Legend:
[1] = test system: normal NK cells expanded with K562-aAPC; assay: percent inhibition of viability; higher = more inhibition; conditions: 72 h, IL-2 2.5 ng/mL
Experimental: (§1)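 Drug sensitivity and resistance testing on K562-aAPC-expanded normal NK cells: 5 concentrations (10-fold steps over a 10,000-fold range), 72 h at 37 °C, viability by CellTiter-Glo normalised to DMSO and benzethonium chloride controls; DSS from the fitted curve.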

[2] = test system: DERL-7 (IL-2 2.5 ng/mL); assay: as above; conditions: 72 h
[3] = test system: IMC-1 (IL-2 20 ng/mL); assay: as above; conditions: 72 h
[4] = test system: KAI3 (IL-2 2.5 ng/mL); assay: as above; conditions: 72 h
[5] = test system: KHYG-1 (IL-2 2.5 ng/mL); assay: as above; conditions: 72 h
[6] = test system: NK-92 (IL-2 2.5 ng/mL); assay: as above; conditions: 72 h
[7] = test system: NK-YS (IL-2 2.5 ng/mL); assay: as above; conditions: 72 h
[8] = test system: NKL (IL-2 2.5 ng/mL); assay: as above; conditions: 72 h
[9] = test system: SNK-6 (IL-2 2.5 ng/mL); assay: as above; conditions: 72 h
[10] = test system: YT (IL-2 2.5 ng/mL); assay: as above; conditions: 72 h
[11] = test system: normal primary NK cells, pool 1 (3 donors) (IL-2 2.5 ng/mL); assay: as above; conditions: 72 h
[12] = test system: normal primary NK cells, pool 1 (3 donors), resting (IL-2 0 ng/mL); assay: as above; conditions: 72 h
[13] = test system: normal primary NK cells, pool 2 (3 donors) (IL-2 2.5 ng/mL); assay: as above; conditions: 72 h
[14] = test system: normal primary NK cells, pool 3 (3 donors) (IL-2 2.5 ng/mL); assay: as above; conditions: 72 h
[15] = test system: normal NK cells expanded with K562-aAPC; assay: drug sensitivity score (DSS) (DSS units); higher = more sensitive; extreme values may be limits of the assay; conditions: 72 h; IL-2 2.5 ng/mL
Experimental: as §1

[16] = test system: DERL-7 (IL-2 2.5 ng/mL); assay: as above; conditions: 72 h
[17] = test system: IMC-1 (IL-2 20 ng/mL); assay: as above; conditions: 72 h
[18] = test system: KAI3 (IL-2 2.5 ng/mL); assay: as above; conditions: 72 h
[19] = test system: KHYG-1 (IL-2 2.5 ng/mL); assay: as above; conditions: 72 h
[20] = test system: NK-92 (IL-2 2.5 ng/mL); assay: as above; conditions: 72 h
[21] = test system: NK-YS (IL-2 2.5 ng/mL); assay: as above; conditions: 72 h
[22] = test system: NKL (IL-2 2.5 ng/mL); assay: as above; conditions: 72 h
[23] = test system: SNK-6 (IL-2 2.5 ng/mL); assay: as above; conditions: 72 h
[24] = test system: YT (IL-2 2.5 ng/mL); assay: as above; conditions: 72 h
[25] = test system: normal primary NK cells, pool 1 (3 donors) (IL-2 2.5 ng/mL); assay: as above; conditions: 72 h
[26] = test system: normal primary NK cells, pool 1 (3 donors), resting (IL-2 0 ng/mL); assay: as above; conditions: 72 h
[27] = test system: normal primary NK cells, pool 2 (3 donors) (IL-2 2.5 ng/mL); assay: as above; conditions: 72 h
[28] = test system: normal primary NK cells, pool 3 (3 donors) (IL-2 2.5 ng/mL); assay: as above; conditions: 72 h

CCc1nc(-c2cccc(C)c2)c(-c2ccnc(NC(=O)c3ccccc3)c2)s1 [TAK-715] (max concentration tested 10000 nM)
percent inhibition of viability [%]
Conditions | 1 nM | 10 nM | 100 nM | 1000 nM | 10000 nM
[1] | -6.95 | -2.48 | -3.15 | 7.93 | 1.86
[2] | -3.04 | 0.75 | -2.18 | -4.76 | 8.69
[3] | -6.3 | 1.07 | -0.32 | 8.04 | 35.2
[4] | -4.52 | 11.6 | 8.66 | 14 | 47
[5] | -3.44 | 6.66 | 1.56 | 3.92 | 42.6
[6] | -3.47 | -2.91 | 1.84 | 9.91 | 81.8
[7] | -4.18 | 3.4 | 5.2 | 13.3 | 54.6
[8] | -0.29 | 6.95 | 13.8 | 30.5 | 43.6
[9] | -15.1 | -7.56 | -2.44 | -0.98 | 67
[10] | -1.34 | 5.71 | 0.2 | 5.66 | 48.7
[11] | -3.9 | -10.5 | -3.55 | -13.9 | 13.3
[12] | 2.15 | 0.59 | -2.35 | -18.5 | 45.6
[13] | -3.82 | 0.59 | 1.26 | -4.23 | 23.5
[14] | -8.64 | -2.23 | 3.1 | -8.31 | 13.7

Conditions | drug sensitivity score
[15] | 0
[16] | 0
[17] | 2.93
[18] | 3.97
[19] | 2.79
[20] | 6.19
[21] | 5.02
[22] | 6.94
[23] | 3.59
[24] | 3.5
[25] | 0.02
[26] | 1.63
[27] | 0.63
[28] | 0.05

Cn1c(=O)c(F)c(Nc2ccc(I)cc2F)c2c(=O)n(C[C@@H](O)CO)cnc21 [TAK-733] (max concentration tested 1000 nM)
percent inhibition of viability [%]
Conditions | 0.1 nM | 1 nM | 10 nM | 100 nM | 1000 nM
[1] | -0.54 | 1.65 | 5.46 | 3.7 | 18.7
[2] | 3.05 | 13.4 | 23 | 41.5 | 47.2
[3] | -1.32 | 1.37 | 0.58 | 3.83 | 18.9
[4] | 2.03 | 4.38 | 17.2 | 23.1 | 29.4
[5] | 4.66 | 9.31 | 20.6 | 48.8 | 64.9
[6] | 3 | 0.98 | -25.3 | -5.54 | 19.1
[7] | -2.42 | 2.48 | 3.61 | 10.7 | 25.6
[8] | 0.9 | 12 | 40.6 | 60.1 | 81.3
[9] | 6 | 0.96 | -6.2 | 3.19 | -10.3
[10] | -3.29 | 0.91 | 1.73 | 6.99 | 14.3
[11] | -3.53 | 3.59 | 5.44 | 11.3 | 7.77
[12] | -1.91 | 4.44 | -3.15 | -6.45 | -3.7
[13] | -4.31 | -4.06 | 11.2 | 17 | 13.8
[14] | -10.4 | -14.4 | -11.3 | 2.73 | 8.36

Conditions | drug sensitivity score
[15] | 0.89
[16] | 10.7
[17] | 1
[18] | 5.51
[19] | 11.7
[20] | 0.33
[21] | 1.77
[22] | 17.2
[23] | 0
[24] | 0.35
[25] | 0.17
[26] | 0
[27] | 2.88
[28] | 0

CCS(=O)(=O)c1cccc(-c2cc(C(=O)NC3CCN(C)CC3)c(C)c3[nH]c4ncc(C)cc4c23)c1 [TAK-901] (max concentration tested 1000 nM)
percent inhibition of viability [%]
Conditions | 0.1 nM | 1 nM | 10 nM | 100 nM | 1000 nM
[1] | -4.46 | -2.36 | -2.68 | 2.78 | 47.6
[2] | -2.6 | 5.56 | -0.1 | 67.8 | 79.7
[3] | -1.14 | 1.82 | -2.81 | 39.8 | 96.9
[4] | 1.13 | 2.62 | 9.88 | 32.9 | 77.5
[5] | -0.42 | -4.46 | -1.82 | 9.29 | 69
[6] | -8.6 | -16.9 | -4.19 | -5.4 | 6
[7] | -2.75 | -0.83 | 5.54 | 65.6 | 70.5
[8] | -9.65 | -9.74 | -13.2 | 31.8 | 67.5
[9] | 6.55 | 11.7 | 6.25 | 25.7 | 70.1
[10] | 0.92 | -0.2 | 0.62 | 11.9 | 28.7
[11] | -7.61 | -7.94 | 3.96 | 1 | 52
[12] | -2.04 | -13.9 | 9.75 | -5.23 | 39.3
[13] | -4.84 | -2.84 | -10.5 | -3.4 | 24.9
[14] | 1.04 | -10.9 | -10.6 | -10.1 | 8.18

Conditions | drug sensitivity score
[15] | 2.88
[16] | 12.5
[17] | 10.6
[18] | 8.03
[19] | 5.36
[20] | 0
[21] | 12.9
[22] | 7.8
[23] | 6.86
[24] | 2.64
[25] | 2.88
[26] | 1.6
[27] | 0.75
[28] | 0
